# PubChem BioAssay (NCI)
#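 48-hour exposure; five concentrations; linearly interpolated endpoints. Abbreviation: GI50, concentration required for 50% inhibition of growth. The concentration for full growth arrest is given as TGI.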
# What was measured:
# Assay in all cases: DTP human tumour cell line panel, 48 h
# 786-0 renal = tested on: 786-0 renal
# A498 renal = tested on: A498 renal
# A549 NSCLC = tested on: A549 NSCLC
# ACHN renal = tested on: ACHN renal
# BT-549 breast = tested on: BT-549 breast
# CAKI-1 renal = tested on: CAKI-1 renal
# CCRF-CEM leukemia = tested on: CCRF-CEM leukemia
# COLO 205 colon = tested on: COLO 205 colon
# DU-145 prostate = tested on: DU-145 prostate
# EKVX NSCLC = tested on: EKVX NSCLC
# HCC-2998 colon = tested on: HCC-2998 colon
# HCT-116 colon = tested on: HCT-116 colon
# HCT-15 colon = tested on: HCT-15 colon
# HL-60(TB) leukemia = tested on: HL-60(TB) leukemia
# HOP-62 NSCLC = tested on: HOP-62 NSCLC
# HOP-92 NSCLC = tested on: HOP-92 NSCLC
# HS 578T breast = tested on: HS 578T breast
# HT29 colon = tested on: HT29 colon
# IGROV1 ovarian = tested on: IGROV1 ovarian
# K-562 leukemia = tested on: K-562 leukemia
# KM12 colon = tested on: KM12 colon
# LOX IMVI melanoma = tested on: LOX IMVI melanoma
# M14 melanoma = tested on: M14 melanoma
# MALME-3M melanoma = tested on: MALME-3M melanoma
# MCF7 breast = tested on: MCF7 breast
# MDA-MB-231 breast = tested on: MDA-MB-231 breast
# MDA-MB-435 = tested on: MDA-MB-435
# MDA-MB-468 breast = tested on: MDA-MB-468 breast
# MOLT-4 leukemia = tested on: MOLT-4 leukemia
# NCI-H226 lung = tested on: NCI-H226 lung
# NCI-H23 lung = tested on: NCI-H23 lung
# NCI-H460 lung = tested on: NCI-H460 lung
# NCI-H522 lung = tested on: NCI-H522 lung
# NCI/ADR-RES ovarian = tested on: NCI/ADR-RES ovarian
# OVCAR-3 ovarian = tested on: OVCAR-3 ovarian
# OVCAR-4 ovarian = tested on: OVCAR-4 ovarian
# OVCAR-5 ovarian = tested on: OVCAR-5 ovarian
# OVCAR-8 ovarian = tested on: OVCAR-8 ovarian
# PC-3 prostate = tested on: PC-3 prostate
# RPMI-8226 leukemia = tested on: RPMI-8226 leukemia
# RXF 393 renal = tested on: RXF 393 renal
# SF-268 CNS = tested on: SF-268 CNS
# SF-295 CNS = tested on: SF-295 CNS
# SF-539 CNS = tested on: SF-539 CNS
# SK-MEL-2 melanoma = tested on: SK-MEL-2 melanoma
# SK-MEL-28 melanoma = tested on: SK-MEL-28 melanoma
# SK-MEL-5 melanoma = tested on: SK-MEL-5 melanoma
# SK-OV-3 ovarian = tested on: SK-OV-3 ovarian
# SN12C renal = tested on: SN12C renal
# SNB-19 CNS = tested on: SNB-19 CNS
# SNB-75 CNS = tested on: SNB-75 CNS
# SR leukemia = tested on: SR leukemia
# SW-620 colon = tested on: SW-620 colon
# T-47D breast = tested on: T-47D breast
# TK-10 renal = tested on: TK-10 renal
# U251 CNS = tested on: U251 CNS
# UACC-257 melanoma = tested on: UACC-257 melanoma
# UACC-62 melanoma = tested on: UACC-62 melanoma
# UO-31 renal = tested on: UO-31 renal
smiles,measurement,setting,value
CN(C)c1ccc(/C=C/c2n(Cc3ccc4ccccc4c3)c3ccccc3[n+]2Cc2ccc3ccccc3c2)cc1,GI50,786-0 renal,287 nM
same,TGI,786-0 renal,1440 nM
same,GI50,A498 renal,269 nM
same,TGI,A498 renal,1150 nM
same,GI50,A549 NSCLC,317 nM
same,TGI,A549 NSCLC,1520 nM
same,GI50,ACHN renal,326 nM
same,TGI,ACHN renal,1210 nM
same,GI50,BT-549 breast,187 nM
same,TGI,BT-549 breast,809 nM
same,GI50,CAKI-1 renal,331 nM
same,TGI,CAKI-1 renal,1310 nM
same,GI50,CCRF-CEM leukemia,315 nM
same,TGI,CCRF-CEM leukemia,1410 nM
same,GI50,COLO 205 colon,211 nM
same,TGI,COLO 205 colon,434 nM
same,GI50,DU-145 prostate,354 nM
same,TGI,DU-145 prostate,1420 nM
same,GI50,EKVX NSCLC,252 nM
same,TGI,EKVX NSCLC,905 nM
same,GI50,HCC-2998 colon,325 nM
same,TGI,HCC-2998 colon,1330 nM
same,GI50,HCT-116 colon,218 nM
same,TGI,HCT-116 colon,1300 nM
same,GI50,HCT-15 colon,458 nM
same,TGI,HCT-15 colon,1740 nM
same,GI50,HL-60(TB) leukemia,228 nM
same,TGI,HL-60(TB) leukemia,795 nM
same,GI50,HOP-62 NSCLC,351 nM
same,TGI,HOP-62 NSCLC,1410 nM
same,GI50,HOP-92 NSCLC,162 nM
same,TGI,HOP-92 NSCLC,600 nM
same,GI50,HS 578T breast,270 nM
same,TGI,HS 578T breast,1420 nM
same,GI50,HT29 colon,235 nM
same,TGI,HT29 colon,1340 nM
same,GI50,IGROV1 ovarian,382 nM
same,TGI,IGROV1 ovarian,1530 nM
same,GI50,K-562 leukemia,228 nM
same,TGI,K-562 leukemia,> 22900 nM
same,GI50,KM12 colon,315 nM
same,TGI,KM12 colon,1300 nM
same,GI50,LOX IMVI melanoma,269 nM
same,TGI,LOX IMVI melanoma,999 nM
same,GI50,M14 melanoma,369 nM
same,TGI,M14 melanoma,1530 nM
same,GI50,MALME-3M melanoma,249 nM
same,TGI,MALME-3M melanoma,740 nM
same,GI50,MCF7 breast,281 nM
same,TGI,MCF7 breast,1100 nM
same,GI50,MDA-MB-231 breast,292 nM
same,TGI,MDA-MB-231 breast,998 nM
same,GI50,MDA-MB-435,338 nM
same,TGI,MDA-MB-435,1240 nM
same,GI50,MDA-MB-468 breast,165 nM
same,TGI,MDA-MB-468 breast,731 nM
same,GI50,MOLT-4 leukemia,303 nM
same,TGI,MOLT-4 leukemia,1660 nM
same,GI50,NCI-H226 lung,257 nM
same,TGI,NCI-H226 lung,1010 nM
same,GI50,NCI-H23 lung,250 nM
same,TGI,NCI-H23 lung,752 nM
same,GI50,NCI-H460 lung,260 nM
same,TGI,NCI-H460 lung,1130 nM
same,GI50,NCI-H522 lung,246 nM
same,TGI,NCI-H522 lung,737 nM
same,GI50,NCI/ADR-RES ovarian,1320 nM
same,TGI,NCI/ADR-RES ovarian,3460 nM
same,GI50,OVCAR-3 ovarian,267 nM
same,TGI,OVCAR-3 ovarian,1250 nM
same,GI50,OVCAR-4 ovarian,342 nM
same,TGI,OVCAR-4 ovarian,1650 nM
same,GI50,OVCAR-5 ovarian,360 nM
same,TGI,OVCAR-5 ovarian,1410 nM
same,GI50,OVCAR-8 ovarian,312 nM
same,TGI,OVCAR-8 ovarian,1350 nM
same,GI50,PC-3 prostate,250 nM
same,TGI,PC-3 prostate,1250 nM
same,GI50,RPMI-8226 leukemia,237 nM
same,TGI,RPMI-8226 leukemia,1130 nM
same,GI50,RXF 393 renal,231 nM
same,TGI,RXF 393 renal,1020 nM
same,GI50,SF-268 CNS,383 nM
same,TGI,SF-268 CNS,1630 nM
same,GI50,SF-295 CNS,266 nM
same,TGI,SF-295 CNS,996 nM
same,GI50,SF-539 CNS,346 nM
same,TGI,SF-539 CNS,1330 nM
same,GI50,SK-MEL-2 melanoma,271 nM
same,TGI,SK-MEL-2 melanoma,770 nM
same,GI50,SK-MEL-28 melanoma,491 nM
same,TGI,SK-MEL-28 melanoma,1710 nM
same,GI50,SK-MEL-5 melanoma,181 nM
same,TGI,SK-MEL-5 melanoma,346 nM
same,GI50,SK-OV-3 ovarian,280 nM
same,TGI,SK-OV-3 ovarian,1090 nM
same,GI50,SN12C renal,286 nM
same,TGI,SN12C renal,1070 nM
same,GI50,SNB-19 CNS,296 nM
same,TGI,SNB-19 CNS,1190 nM
same,GI50,SNB-75 CNS,240 nM
same,TGI,SNB-75 CNS,1140 nM
same,GI50,SR leukemia,399 nM
same,TGI,SR leukemia,2300 nM
same,GI50,SW-620 colon,319 nM
same,TGI,SW-620 colon,1310 nM
same,GI50,T-47D breast,294 nM
same,TGI,T-47D breast,1500 nM
same,GI50,TK-10 renal,416 nM
same,TGI,TK-10 renal,1680 nM
same,GI50,U251 CNS,166 nM
same,TGI,U251 CNS,1270 nM
same,GI50,UACC-257 melanoma,265 nM
same,TGI,UACC-257 melanoma,919 nM
same,GI50,UACC-62 melanoma,281 nM
same,TGI,UACC-62 melanoma,1020 nM
same,GI50,UO-31 renal,530 nM
same,TGI,UO-31 renal,1840 nM
